Source: US20260256747A1, “ARYL-TRIAZOLYL AND RELATED GPR84 ANTAGONISTS AND USES THEREOF” (Liminal BioSciences Limited, priority 2022, published 2026)

Target: T1, human GPR84 receptor (Homo sapiens, UniProt Q9NQS5)
T1 construct: host or cells: HEK293 cells, transient transfection
Assay: Gαi biosensor BRET assay in HEK293 cells transfected with GPR84, stimulated with the GPR84 agonist ZQ-16
Assay type: cell-based
Conditions: 200 nmol/L ZQ-16; for inhibition at 2 µM / inhibition at 10 µM: HEK293, single concentration; for inhibition at 2 µM: concentration class A = 2 μM; for inhibition at 10 µM: concentration class F = 10 μM
Source text: Background—The following assays can be used for determination of GPR84 activation in living HEK293 cells. The Gαi BRET biosensor (Gagnon et al., 2018; Gales et al., 2006. Nat Struct Mol Biol. 13, 778-86; Saulieres et al., 2012. Nat Chem Biol. 8, 622-30) allows to directly monitor GPR84-mediated activation of Gαi. The Gαi biosensor consists of a Rluc8-tagged Gαi2 subunit, a GFP10-tagged Gγ2 subunit, and an untagged GB1. Agonist stimulation and GPR84 activation triggers a physical separation between the RLuc8-Gαi donor and the GFP10-Gγ2 acceptor, resulting in a decrease in BRET signal whose amplitude is correlated to ligand efficacy (Gales et al., 2006). Moreover, signaling functions of GPCRs are tightly regulated by endocytosis, the targeting of receptors to endosomes and their sorting to lysosomes or recycling to the plasma membrane. The early endosomes (EEs) trafficking assay (Namkung et al., 2016. Nat Commun. 7, 12178) uses Rluc8-tagged GPR84 and Renilla GFP (rGFP) attached to the FYVE domain from human endofin/zinc finger FYVE domain-containing protein 16, which binds phosphatidylinositol 3-phosphate in EEs. Agonist stimulation of GPR84-Rluc8 leads to trafficking of the receptor to EEs, and ensuing increase of the donor concentration relative to the rGFP-FYVE acceptor anchored in the same cellular compartment, and thus results in an increase in BRET signal.
Plasmids—The cDNA clones for human GPR84 receptor, human Gαi2, Gβ1, and Gγ2 were obtained from the cDNA Resource Center (www.cdna.org). GFP10 (F64L, S147P, S202F and H231L variant of Aequorea victoria Green Fluorescent Protein) gBlocks gene fragments (Integrated DNA Technologies, IA) and linker were inserted in frame at the N-terminus of human Gγ2. Rluc8 (A^55T, Cl24A, S130A, K136R, A^143M, M185V, M253L, and S287L variant of the Renilla reniformis luciferase) gBlocks gene fragment was inserted with linkers in frame in between residues 91 and 92 of Gαi2 or at the C-terminus of GPR84. The FYVE domain from human endofin (residues Q739 to K806) attached in frame at the C terminus of a humanized Renilla GFP (rGFP), were synthesized as gBlocks gene fragments.
Bioluminescence Resonance Energy Transfer (BRET) Measurement-HEK293 cells were transfected with GPR84-Rluc8 and rGFP-FYVE for the EEs trafficking biosensor or with GPR84, Gαi2-Rluc8, GFP10-Gγ2, and Gβ1 for the Gαi biosensor. The following day, transiently transfected cells were seeded in 96-well white clear bottom microplates coated with poly-D-lysine and left in culture for 24 hours. Cells were washed once with Tyrode's buffer (140 mmol/L NaCl, 1 mmol/L CaCl2, 2.7 mmol/L KCl, 0.49 mmol/L MgCl2, 0.37 mmol/L NaH2PO4, 5.6 mmol/L glucose, 12 mmol/L NaHCO3, and 25 mmol/L HEPES, pH 7.5) before performing assays in Tyrode's buffer. Test compounds were incubated with cells for 5 (Gai) or 15 (EEs) minutes at 37° C. before addition of 200 nmol/L of the GPR84 agonist ZQ-16 (2-(Hexylthio)-6-hydroxy-4 (3H)-pyrimidinone) for 5 minutes at room temperature (Gai) or 30 minutes at 37° C. (EEs). The Rluc8 substrate coelenterazine 400A (Prolume, Lakeside, AZ) was added at a final concentration of 5 μmol/L and BRET readings were collected using an Infinite M1000 microplate reader (Tecan, Morrisville, NC). BRET2 readings between Rluc8 and GFP10 or rGFP were collected by sequential integration of the signals detected in the 370 to 450 nm (Rluc8) and 510 to 540 nm (GFP10, rGFP) windows. The BRET signal was calculated as the ratio of light emitted by acceptor (GFP10, rGFP) over the light emitted by donor (Rluc8). The values were corrected to net BRET by subtracting the background BRET signal obtained in cells transfected with Rluc8 constructs alone. Ligand-promoted net BRET values were calculated by subtracting vehicle-induced net BRET from ligand-induced net BRET.

T1 sequence (Q9NQS5 whole entry): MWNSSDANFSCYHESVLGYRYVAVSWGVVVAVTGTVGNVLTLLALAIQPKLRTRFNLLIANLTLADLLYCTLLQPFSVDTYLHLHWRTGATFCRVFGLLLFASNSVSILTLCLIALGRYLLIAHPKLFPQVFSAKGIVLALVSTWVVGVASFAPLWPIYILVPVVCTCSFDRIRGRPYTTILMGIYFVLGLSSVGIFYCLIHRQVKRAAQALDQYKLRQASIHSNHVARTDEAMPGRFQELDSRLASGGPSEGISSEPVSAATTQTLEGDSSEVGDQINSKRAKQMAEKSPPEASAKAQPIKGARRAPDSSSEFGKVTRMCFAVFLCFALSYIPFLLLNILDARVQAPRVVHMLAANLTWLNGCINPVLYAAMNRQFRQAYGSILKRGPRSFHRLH

Compound	IC50 [nM]	inhibition at 2 µM [%]	inhibition at 10 µM [%]
Cc1cc(C#CC2CC2)ccc1-c1nnc(-c2cn(CC3OCC4(CC4)CO3)nn2)o1 [Compound I-220]	300 to 1000		> 75
c1nc(-c2cn(CC3OCC4(CC4)CO3)nn2)c(OC2CC2)cc1-c1cnn[nH]1 [Compound I-224]	≤ 300	> 75	
Cn1nncc1-c1cnc(-c2cn(CC3OCC4(CC4)CO3)nn2)c(OC2CC2)c1 [Compound I-225]			50 to 75
Cn1cncc1-c1cnc(-c2cn(CC3OCC4(CC4)CO3)nn2)c(OC2CC2)c1 [Compound I-230]			50 to 75
CN(C)C(=O)CN(C)c1cnc(-c2cn(CC3OCC4(CC4)CO3)nn2)c(OC2CC2)c1 [Compound I-231]			≤ 25
C(#CC1CC1)Cn1cc(-c2ncc(-c3nnn[nH]3)cc2OC2CC2)nn1 [Compound I-234]			> 75
c1cc(-c2cnc(-c3cn(CC4OCC5(CC5)CO4)nn3)c(OC3CC3)c2)n[nH]1 [Compound I-235]	≤ 300	> 75	
CN(C)C(=O)Cn1cc(-c2ncc(C#N)cc2OC2CC2)nn1 [Compound I-240]			≤ 25
N#Cc1cnc(-c2cn(CC(=O)N3CCCC3)nn2)c(OC2CC2)c1 [Compound I-241]			25 to 50
O=C(Cn1cncc1-c1ncc(C#CC2CC2)cc1OC1CC1)N1CCCC1 [Compound I-243]			≤ 25
O=C(Cn1cc(-c2ncc(C#CC3CC3)cc2OC2CC2)nn1)N1CC[C@H](O)C1 [Compound I-244]	1000 to 3000		> 75
O=C(Cn1cc(-c2nc(O)c(C#CC3CC3)cc2OC2CC2)nn1)N1CCCC1 [Compound I-249]		≤ 25	
CN(C)C(=O)Cn1cc(-c2nc(O)c(C#CC3CC3)cc2OC2CC2)nn1 [Compound I-251]		≤ 25	
Cc1ccc(C#CC2CC2)cc1-c1nnc(-c2cn(CC3OCC4(CC4)CO3)nn2)o1 [Compound I-255]			50 to 75
Cc1cc(C#CC2CC2)cnc1-c1nnc(-c2cn(CC3OCC4(CC4)CO3)nn2)o1 [Compound I-256]			≤ 25
Fc1ccc(C#CC2CC2)cc1-c1nnc(-c2cn(CC3OCC4(CC4)CO3)nn2)o1 [Compound I-258]			25 to 50
Cc1cc(C#CC2CC2)ccc1-c1nnc(-c2cn(CC(=O)N(C)C)nn2)o1 [Compound I-259]			≤ 25
CN(C)C(=O)Cn1cc(-c2nnc(-c3ccc(C#CC4CC4)cc3F)o2)nn1 [Compound I-261]			≤ 25
CN(C)C(=O)Cn1cc(-c2nnc(-c3cc(C#CC4CC4)ccc3F)o2)nn1 [Compound I-262]			≤ 25
CN1CCN(C(=O)Cn2cc(-c3ncc(C#CC4CC4)cc3OC3CC3)nn2)CC1 [Compound I-266]			25 to 50
O=C(Cn1cc(-c2ncc(C#CC3CC3)cc2OC2CC2)nn1)N1CCCCC1 [Compound I-267]			> 75

Continued, values first:

IC50 [nM]	inhibition at 2 µM [%]	inhibition at 10 µM [%]	Compound
300 to 1000	> 75		C(#CC1CC1)c1cnc(-c2cnn(CC3OCC4(CC4)CO3)c2)c(OC2CC2)c1 [Compound I-218]
		50 to 75	CCCOc1cc(C#CC2CC2)cnc1-c1cn(CC(=O)N(C)C)nn1 [Compound I-221]
		≤ 25	Cn1nnnc1-c1cnc(-c2cn(CC3OCC4(CC4)CO3)nn2)c(OC2CC2)c1 [Compound I-222]
≤ 300	> 75		Cn1nnc(-c2cnc(-c3cn(CC4OCC5(CC5)CO4)nn3)c(OC3CC3)c2)n1 [Compound I-223]
≤ 300	> 75		Cn1ncc(-c2cnc(-c3cn(CC4OCC5(CC5)CO4)nn3)c(OC3CC3)c2)n1 [Compound I-226]
≤ 300	> 75		Cn1cc(-c2cnc(-c3cn(CC4OCC5(CC5)CO4)nn3)c(OC3CC3)c2)nn1 [Compound I-227]
≤ 300	> 75		c1ncc(-c2cnc(-c3cn(CC4OCC5(CC5)CO4)nn3)c(OC3CC3)c2)[nH]1 [Compound I-228]
		≤ 25	c1c[nH]c(-c2cnc(-c3cn(CC4OCC5(CC5)CO4)nn3)c(OC3CC3)c2)n1 [Compound I-229]
		50 to 75	CN(C)C(=O)Cn1cc(-c2ncc(-c3nnn[nH]3)cc2OC2CC2)nn1 [Compound I-232]
		25 to 50	O=C(Cn1cc(-c2ncc(-c3nnn[nH]3)cc2OC2CC2)nn1)N1CCCC1 [Compound I-233]
300 to 1000		> 75	c1n[nH]cc1-c1cnc(-c2cn(CC3OCC4(CC4)CO3)nn2)c(OC2CC2)c1 [Compound I-236]
		50 to 75	Cn1nccc1-c1cnc(-c2cn(CC3OCC4(CC4)CO3)nn2)c(OC2CC2)c1 [Compound I-237]
≤ 300	> 75		Cn1ccc(-c2cnc(-c3cn(CC4OCC5(CC5)CO4)nn3)c(OC3CC3)c2)n1 [Compound I-238]
≤ 300		> 75	Cn1cc(-c2cnc(-c3cn(CC4OCC5(CC5)CO4)nn3)c(OC3CC3)c2)cn1 [Compound I-239]
		50 to 75	O=C(Cn1cnc(-c2ncc(C#CC3CC3)cc2OC2CC2)c1)N1CCCC1 [Compound I-242]
1000 to 3000		> 75	O=C(Cn1cc(-c2ncc(C#CC3CC3)cc2OC2CC2)nn1)N1CC[C@@H](O)C1 [Compound I-245]
		50 to 75	O=C(Cn1cc(-c2ncc(C#CC3CC3)cc2OC2CC2)nn1)N1C[C@@H](O)[C@H](O)C1 [Compound I-246]
		> 75	O=C(Cn1cc(-c2ncc(C#CC3CC3)cc2OC2CC2)nn1)N1C[C@H](O)[C@@H](O)C1 [Compound I-247]
		> 75	O=C(Cn1cc(-c2ncc(C#CC3CC3)cc2OC2CC2)nn1)N1C[C@@H](O)[C@@H](O)C1 [Compound I-248]
		> 75	O=C(Cn1cc(-c2ncc(C#CC3(O)CC3)cc2OC2CC2)nn1)N1CCCC1 [Compound I-250]
		> 75	CN(C)C(=O)Cn1cc(-c2ncc(C#CC3(O)CC3)cc2OC2CC2)nn1 [Compound I-252]
1000 to 3000		> 75	O=C(Cn1cc(-c2c(OC3CC3)cc(C#CC3CC3)c[n+]2[O-])nn1)N1CCCC1 [Compound I-253]
		25 to 50	C(#CC1CC1)c1ccc(-c2nnc(-c3cn(CC4OCC5(CC5)CO4)nn3)o2)cc1 [Compound I-254]
		> 75	Fc1cc(C#CC2CC2)ccc1-c1nnc(-c2cn(CC3OCC4(CC4)CO3)nn2)o1 [Compound I-257]
		≤ 25	Cc1ccc(C#CC2CC2)cc1-c1nnc(-c2cn(CC(=O)N(C)C)nn2)o1 [Compound I-260]
	25 to 50		Cc1ccc(C#CC2CC2)cc1C(F)(F)c1cn(CC(=O)N(C)C)nn1 [Compound I-263]
	> 75		Cc1ccc(C#CC2CC2)cc1C(F)(F)c1cn(CC2OCC3(CC3)CO2)nn1 [Compound I-264]
		25 to 50	N=C(N)c1cnc(-c2cn(CC3OCC4(CC4)CO3)nn2)c(OC2CC2)c1 [Compound I-265]
		25 to 50	O=C(Cn1cc(-c2ncc(C#CC3CC3)cc2OC2CC2)nn1)N1CCOCC1 [Compound I-268]
